Values quoted from earlier work in patent publication US20260015582A1, “METHODS OF T CELL DIFFERENTIATION AND COMPOSITIONS THEREOF” (THE CHILDREN'S MEDICAL CENTER CORPORATION, priority 2022, published 2026).

How the values were obtained:
[1] = tested on: G9a/GLP; conditions: SAM-competitive manner
[2] = target: T1, class III isoenzyme SIRT1 (Homo sapiens, UniProt Q96EB6)
T1 sequence (Q96EB6 1-747): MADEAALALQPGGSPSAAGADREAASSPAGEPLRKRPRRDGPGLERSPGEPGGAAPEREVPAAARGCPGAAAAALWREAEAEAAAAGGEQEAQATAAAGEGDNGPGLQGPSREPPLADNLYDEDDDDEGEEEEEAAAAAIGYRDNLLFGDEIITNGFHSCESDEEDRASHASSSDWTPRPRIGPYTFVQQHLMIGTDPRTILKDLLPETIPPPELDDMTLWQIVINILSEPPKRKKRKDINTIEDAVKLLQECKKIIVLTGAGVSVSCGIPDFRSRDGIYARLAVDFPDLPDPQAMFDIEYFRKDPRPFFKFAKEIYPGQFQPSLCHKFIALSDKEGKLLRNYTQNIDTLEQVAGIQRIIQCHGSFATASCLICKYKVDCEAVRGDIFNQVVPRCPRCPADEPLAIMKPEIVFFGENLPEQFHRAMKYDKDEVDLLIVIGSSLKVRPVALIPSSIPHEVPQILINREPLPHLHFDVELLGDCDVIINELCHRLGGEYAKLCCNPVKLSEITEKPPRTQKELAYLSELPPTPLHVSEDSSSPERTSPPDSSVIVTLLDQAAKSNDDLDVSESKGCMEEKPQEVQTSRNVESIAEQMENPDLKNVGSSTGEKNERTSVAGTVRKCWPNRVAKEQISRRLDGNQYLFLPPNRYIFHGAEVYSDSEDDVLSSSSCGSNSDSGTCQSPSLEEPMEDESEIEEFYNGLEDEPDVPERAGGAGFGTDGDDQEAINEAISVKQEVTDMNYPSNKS

[3] = tested on: Lys27-specific EZH2
[4] = tested on: G9a
[5] = target: T2, DIM5 (Neurospora crassa, UniProt Q8X225)
T2 sequence (Q8X225 1-331): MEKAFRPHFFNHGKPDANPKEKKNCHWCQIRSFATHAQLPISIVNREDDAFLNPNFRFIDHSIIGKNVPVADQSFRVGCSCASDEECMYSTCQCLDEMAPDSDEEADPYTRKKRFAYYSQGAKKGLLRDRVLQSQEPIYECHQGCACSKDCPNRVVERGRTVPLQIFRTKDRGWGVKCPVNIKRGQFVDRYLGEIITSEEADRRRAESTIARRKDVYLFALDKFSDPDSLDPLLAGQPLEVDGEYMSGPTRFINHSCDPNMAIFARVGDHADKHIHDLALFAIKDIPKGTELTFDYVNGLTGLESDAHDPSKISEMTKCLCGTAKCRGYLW

[6] = tested on: Lys20-specific PRSET7
[7] = target: T3, Lys4-specific SET7/9 (Homo sapiens, UniProt Q8WTS6)
T3 sequence (Q8WTS6 1-366): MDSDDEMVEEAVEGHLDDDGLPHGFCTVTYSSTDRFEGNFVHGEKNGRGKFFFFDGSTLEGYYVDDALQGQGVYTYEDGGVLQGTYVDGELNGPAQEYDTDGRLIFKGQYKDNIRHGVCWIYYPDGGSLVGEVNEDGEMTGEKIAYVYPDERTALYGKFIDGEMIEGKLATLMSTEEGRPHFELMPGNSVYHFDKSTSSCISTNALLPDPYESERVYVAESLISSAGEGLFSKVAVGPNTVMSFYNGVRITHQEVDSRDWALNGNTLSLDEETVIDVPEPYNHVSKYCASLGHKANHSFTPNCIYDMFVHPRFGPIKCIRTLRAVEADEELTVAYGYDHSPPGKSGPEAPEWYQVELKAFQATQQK

[8] = target: HMT SU(VAR)3-9 (Drosophila melanogaster, UniProt P45975)
HMT SU(VAR)3-9, sequence (P45975 with tags, fused parts or gaps): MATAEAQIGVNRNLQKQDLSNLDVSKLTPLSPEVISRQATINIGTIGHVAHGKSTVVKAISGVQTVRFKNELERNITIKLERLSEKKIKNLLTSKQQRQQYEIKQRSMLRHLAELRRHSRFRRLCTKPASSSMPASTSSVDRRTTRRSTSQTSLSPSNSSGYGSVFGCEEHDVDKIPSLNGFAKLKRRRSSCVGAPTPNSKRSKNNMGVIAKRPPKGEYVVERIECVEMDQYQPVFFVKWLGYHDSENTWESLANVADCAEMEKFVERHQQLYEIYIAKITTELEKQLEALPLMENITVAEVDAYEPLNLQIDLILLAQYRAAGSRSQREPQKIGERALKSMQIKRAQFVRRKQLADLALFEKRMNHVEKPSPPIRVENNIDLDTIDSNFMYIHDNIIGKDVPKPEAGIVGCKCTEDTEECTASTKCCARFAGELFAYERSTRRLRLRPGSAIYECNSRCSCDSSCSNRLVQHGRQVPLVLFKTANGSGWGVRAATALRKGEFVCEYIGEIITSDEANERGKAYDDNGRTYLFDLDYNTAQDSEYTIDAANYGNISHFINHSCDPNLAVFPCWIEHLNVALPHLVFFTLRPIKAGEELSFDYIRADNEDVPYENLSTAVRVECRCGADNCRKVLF

[9] = target: T4, JMJD2E (Homo sapiens, UniProt B2RXH2); conditions: ECSD enzymatic assays
T4 sequence (B2RXH2 1-506): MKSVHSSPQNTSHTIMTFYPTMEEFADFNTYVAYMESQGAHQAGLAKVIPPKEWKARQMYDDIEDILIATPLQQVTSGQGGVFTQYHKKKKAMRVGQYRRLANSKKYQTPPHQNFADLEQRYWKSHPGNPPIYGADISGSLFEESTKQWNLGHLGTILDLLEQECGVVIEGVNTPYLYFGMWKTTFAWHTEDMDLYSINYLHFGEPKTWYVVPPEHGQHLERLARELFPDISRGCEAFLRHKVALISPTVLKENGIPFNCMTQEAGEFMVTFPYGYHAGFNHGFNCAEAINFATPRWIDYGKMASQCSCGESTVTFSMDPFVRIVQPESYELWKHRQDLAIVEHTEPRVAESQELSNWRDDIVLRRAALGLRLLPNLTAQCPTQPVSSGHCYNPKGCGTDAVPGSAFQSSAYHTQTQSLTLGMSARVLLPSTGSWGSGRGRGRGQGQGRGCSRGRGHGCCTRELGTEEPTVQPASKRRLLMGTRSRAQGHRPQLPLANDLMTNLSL

## COc1ccc(C(=O)Oc2ccc(CCn3c(NC(=O)c4ccc(C(F)(F)F)cc4)nc4cc(C(=O)O)ccc43)cc2)cc1 [BIX-01338]
[1]
  G9a/GLP effective conc.: G9a/GLP effective conc. = 15 μM

## CCCCc1nc2cc(/C=C/C(=O)NO)ccc2n1CCN(CC)CC [SB939, Pracinostat]
[2]
  activity against the class III isoenzyme SIRT1: no activity

## CN1C(=O)C23CC4([C@]56C[C@@]78SS[C@@](CO)(C(=O)N7[C@H]5Nc5ccccc56)N(C)C8=O)c5ccccc5NC4N2C(=O)[C@]1(CO)SS3 (stereo partly shown) [Chaetocin]
[3]
  IC50: > 90 µM
[4]
  IC50: 2.5 µM
[5]
  IC50: 3 µM
[6]
  IC50: > 90 µM
[7]
  IC50: > 90 µM
[8]
  IC50: 0.8 µM

## COc1cc2c(NC3CCN(C)CC3)nc(N3CCCN(C)CC3)nc2cc1OCCOCCN(C)C [UNC0321]
[9]
  selectivity over JMJD2E: > 1000 fold
[9]; inactive
  IC50: > 40 µM
